Target: T1, human cannabinoid CB2 receptor (Homo sapiens, UniProt P34972)
T1 construct: expressed in transfected cells; host or cells: Saccharomyces cerevisiae strain MMY23 (expresses a chimeric Gpa1/human Galpha-i3 G-protein alpha subunit)
Assay: Cannabinoid CB2 receptor agonist activity, yeast reporter assay
Assay type: cell-based
Settings: for Emax: read-out: efficacy (Emax) at the cloned human cannabinoid CB2 receptor
Method in brief: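 Agonism read in S. cerevisiae strain MMY23 with the human CB2 receptor integrated at ura3 under the GPD promoter, coupled through a Gpa1/human Gαi3 C-terminal chimeric G-alpha. Compounds were added in DMSO (1% final). Fluorescence versus concentration was fitted by four-parameter fit to give a concentration effect value.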

T1 sequence (P34972 whole entry): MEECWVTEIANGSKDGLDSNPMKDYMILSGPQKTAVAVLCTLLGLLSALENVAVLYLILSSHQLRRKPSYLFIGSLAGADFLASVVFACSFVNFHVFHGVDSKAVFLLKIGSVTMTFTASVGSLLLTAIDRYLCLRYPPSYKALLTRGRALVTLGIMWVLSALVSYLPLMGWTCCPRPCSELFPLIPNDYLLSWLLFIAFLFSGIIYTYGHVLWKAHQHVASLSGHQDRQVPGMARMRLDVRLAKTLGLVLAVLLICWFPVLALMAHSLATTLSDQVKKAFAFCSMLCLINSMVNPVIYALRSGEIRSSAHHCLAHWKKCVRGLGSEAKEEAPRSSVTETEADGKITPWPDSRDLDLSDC

| Compound | EC50 [µM] | Emax [%] |
| --- | --- | --- |
| O=C(O)Cc1cccc(Nc2ncc(C(=O)NCc3ccc(F)cc3)c(C(F)(F)F)n2)c1 [Example 112, {3-[(4-Fluoro-benzylcarbamoyl)-trifluoromethyl-pyrimidin-2-ylamino]-phenyl}-acetic acid] | > 1 | < 50 |
| O=C(O)c1cc(Cl)cc(Nc2ncc(C(=O)NCc3ccc(F)cc3)c(C(F)(F)F)n2)c1 [Example 113, 3-Chloro-5-[(4-fluoro-benzylcarbamoyl)-trifluoromethyl-pyrimidin-2-ylarnino]-benzoic acid] | > 1 | < 50 |
| O=C(NCc1ccc(F)cc1)c1cnc(Nc2cc(C(F)(F)F)cc(C(F)(F)F)c2)nc1C(F)(F)F [Example 114, 2-(3,5-Ditrifluoromethyl-phenylamino)-4-trifluoromethyl-pyrimidine-5-carboxylic acid 4-fluoro-benzylamide] | > 1 | < 50 |

— patent US20060247261A1 (priority 2002, published 2006)
